# Patent US20140178411A1, “COMPOUNDS AND METHODS FOR THE TREATMENT OF CD20 POSITIVE DISEASES” (BIO-THERA SOLUTIONS, LTD., CO., priority 2012, published 2014)
# Assays:
# tubulin = conditions: 10 μL added to 100 μL 4 mg/ml tubulin, FIG. 1
# Description: The effect of 3AA-MDC and related metabolites on the tubulin polymerization in vitro was assessed by HTS-Tubulin Polymerization Assay Kit (BK004P, Cytoskeleton, Inc., USA). According to the instruction of kit, pre-warm the 96-well plate to 37° C. for 30 min prior to starting the assay. At the same time, the spectrophotometer (SpectraMax, Molecular Devices, USA) was set as follow: wavelength, 405 nm; temperature, 37° C.; Kinetic, 31 cycles of 1 reading per minute. Make cold G-PEM buffer (990 μL General Tubulin Buffer+10 μL GTP Stock) and keep it on ice. Prepare 4 mg/ml tubulin, 200 nM L-3AA-MDC (N2′-deacetyl-N2′-(6-maleimido-1-oxo-hexyl)maytansine), or related compounds cys-3AA-MDC, or lys-mcc-MDC, 100 μM Paclitaxel, 100 μM Nocodazole, and 1 μM 206-3AA-MDC (3AA-MDC-antibody conjugate). Add 10 μL G-PEM, 3AA-MDC, Paclitaxel, Nocodazole and 206-3AA-MDC or related metabolites into the wells, and then add 100 μL 4 mg/ml tubulin to each well. Immediately place the plate into the spectrophotometer and start recording using the kinetic setup described above.
# [1] = tested on: human acute lymphoblastic leukemia line C.E.M.; conditions: Wolpert-DeFillippes et al. 1975; cited from earlier work
smiles,measurement,setting,value
"COc1cc2cc(c1Cl)N(C)C(=O)C[C@H](OC(=O)[C@H](C)N(C)C(=O)CCCCCN1C(=O)C=CC1=O)[C@]1(C)OC1[C@H](C)[C@@H]1C[C@@](O)(NC(=O)O1)[C@H](OC)/C=C/C=C(\C)C2 (stereo partly drawn) [L-3AA-MDC, N2′-deacetyl-N2′-(6-maleimido-1-oxo-hexyl)maytansine]",effect on tubulin polymerization (in words),"tubulin; 200 nM stock, compared with Nocodazole",more significantly inhibited the tubulin polymerization
COc1cc2cc(c1Cl)N(C)C(=O)C[C@H](OC(=O)[C@H](C)N(C)C(C)=O)[C@]1(C)O[C@H]1[C@H](C)[C@@H]1C[C@@](O)(NC(=O)O1)[C@H](OC)/C=C/C=C(\C)C2 [Maytansine],concentration that inhibits C.E.M. line (as low as),[1],10^−7 µg/mL
COC(=O)Nc1nc2ccc(C(=O)c3cccs3)cc2[nH]1 [Nocodazole],relative activity of tubulin polymerization decreased,"tubulin; 100 μM Nocodazole stock, 37° C., 405 nm",2.5 fold
CC(=O)O[C@H]1C(=O)[C@@]2(C)[C@H]([C@H](OC(=O)c3ccccc3)[C@]3(O)C[C@H](OC(=O)[C@H](O)[C@@H](NC(=O)c4ccccc4)c4ccccc4)C(C)=C1C3(C)C)[C@]1(OC(C)=O)CO[C@@H]1C[C@@H]2O [Paclitaxel],relative activity of tubulin polymerization enhanced,"tubulin; 100 μM Paclitaxel stock, 37° C., 405 nm",about 3 fold
